According to ChEMBL document CHEMBL1138543, “Design and synthesis of calpain inhibitory 6-pyridone 2-carboxamide derivatives” (Eur J Med Chem, 2009):
pIC50: −log10 of the molar value.

Biological target: T1, Calpain-1 catalytic subunit (Homo sapiens, UniProt P07384)
T1 sequence (P07384 whole entry): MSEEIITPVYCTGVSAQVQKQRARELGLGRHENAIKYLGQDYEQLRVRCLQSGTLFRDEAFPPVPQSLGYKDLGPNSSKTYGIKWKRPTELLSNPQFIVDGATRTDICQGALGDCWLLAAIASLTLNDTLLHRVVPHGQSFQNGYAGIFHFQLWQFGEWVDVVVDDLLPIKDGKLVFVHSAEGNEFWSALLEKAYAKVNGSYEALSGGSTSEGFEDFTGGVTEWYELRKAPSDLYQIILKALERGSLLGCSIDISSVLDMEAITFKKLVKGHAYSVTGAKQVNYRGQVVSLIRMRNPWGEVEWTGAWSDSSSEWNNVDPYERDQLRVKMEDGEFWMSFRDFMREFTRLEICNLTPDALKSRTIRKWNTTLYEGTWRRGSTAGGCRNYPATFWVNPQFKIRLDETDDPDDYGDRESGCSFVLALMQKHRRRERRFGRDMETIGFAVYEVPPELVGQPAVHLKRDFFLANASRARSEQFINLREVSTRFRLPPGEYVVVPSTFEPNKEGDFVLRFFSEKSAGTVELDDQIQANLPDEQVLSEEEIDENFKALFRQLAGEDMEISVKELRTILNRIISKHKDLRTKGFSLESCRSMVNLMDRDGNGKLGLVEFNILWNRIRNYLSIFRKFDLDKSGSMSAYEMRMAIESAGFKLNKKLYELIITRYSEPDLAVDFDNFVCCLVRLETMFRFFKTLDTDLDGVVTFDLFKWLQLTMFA
Assay: Inhibition of human erythrocytes mu-calpain by spectrofluorimeter

SMILES | pIC50
CNC(=O)C(=O)[C@H](Cc1ccccc1)NC(=O)c1[nH]c(=O)ccc1C | 4.04
Cc1ccc(=O)[nH]c1C(=O)N[C@@H](Cc1ccccc1)C(=O)C(=O)NCc1ccccc1 | 4.19
CCNC(=O)C(=O)[C@H](Cc1ccccc1)NC(=O)c1[nH]c(=O)ccc1C | 4.40
Cc1ccc(=O)[nH]c1C(=O)N[C@@H](Cc1ccccc1)C(=O)C(=O)NCc1ccccn1 | 4.07
Cc1ccc(=O)[nH]c1C(=O)N[C@@H](Cc1ccccc1)C(=O)C(=O)NC(C)C | < 4.00

Compounds with a higher pIC50, results first:

pIC50 | SMILES
4.66 | Cc1ccc(=O)[nH]c1C(=O)N[C@@H](Cc1ccccc1)C(=O)C(=O)NCc1ccc(F)cc1
4.47 | Cc1ccc(=O)[nH]c1C(=O)N[C@@H](Cc1ccccc1)C(=O)C(=O)NCCc1ccccn1
5.21 | COc1ccc(CNC(=O)C(=O)[C@H](Cc2ccccc2)NC(=O)c2[nH]c(=O)ccc2C)cc1
4.45 | COc1ccc(CNC(=O)C(=O)[C@H](Cc2ccccc2)NC(=O)c2[nH]c(=O)ccc2C)cc1OC
5.21 | COc1ccc(CCNC(=O)C(=O)[C@H](Cc2ccccc2)NC(=O)c2[nH]c(=O)ccc2C)cc1
5.55 | Cc1ccc(=O)[nH]c1C(=O)N[C@@H](Cc1ccccc1)C(=O)C(N)=O
5.13 | Cc1ccc(=O)[nH]c1C(=O)N[C@@H](Cc1ccccc1)C(=O)C(=O)NCCc1ccccc1
